According to patent publication US12259330B2 (ARIZONA BOARD OF REGENTS ON BEHALF OF ARIZONA STATE …, priority 2021, dated 2025):

Molecular target: T1, PCSK9 (Homo sapiens, UniProt Q8NBP7)
T1 construct: gift from Dr. Daniel Kirchhofer, Genentech
Experiment: SPR measurement of PCSK9 binding to synthesized pep2-8
Details: synthesized peptide on streptavidin-coated gold surface, average and standard deviation over PCSK9 concentrations
Protocol: The synthesized peptide was immobilized to a streptavidin-coated gold surface. Different concentrations of PCSK9 were flowed to the surface to measure the binding kinetics.
The SPR sensor chip was fabricated by coating 1.5 nm Cr and then 47 nm Au on cover glass (no. 1 VWR) using an e-beam evaporator. Prior to surface functionalization, the gold surface was cleaned with ethanol and DI water twice, dried by N2, and annealed by H2 flame. The gold chip was immersed in a mixture of 0.2 mM SH-PEG8-COOH and 0.2 mM MT(PEG)4 overnight. Then, —COOH was activated using NHS/EDC chemistry (50 mM NHS and 200 mM EDC) for 20 min and incubated with 0.1 mg/mL streptavidin in PBS for 30 min to allow immobilization. The remaining unreacted sites were quenched with 10 mM ethanolamine and the nonspecific binding sites were blocked with SuperBlock for 10 min. […] The functionalized chip was finally rinsed with PBS before the measurement.

T1 sequence (Q8NBP7 153-692, species assumed): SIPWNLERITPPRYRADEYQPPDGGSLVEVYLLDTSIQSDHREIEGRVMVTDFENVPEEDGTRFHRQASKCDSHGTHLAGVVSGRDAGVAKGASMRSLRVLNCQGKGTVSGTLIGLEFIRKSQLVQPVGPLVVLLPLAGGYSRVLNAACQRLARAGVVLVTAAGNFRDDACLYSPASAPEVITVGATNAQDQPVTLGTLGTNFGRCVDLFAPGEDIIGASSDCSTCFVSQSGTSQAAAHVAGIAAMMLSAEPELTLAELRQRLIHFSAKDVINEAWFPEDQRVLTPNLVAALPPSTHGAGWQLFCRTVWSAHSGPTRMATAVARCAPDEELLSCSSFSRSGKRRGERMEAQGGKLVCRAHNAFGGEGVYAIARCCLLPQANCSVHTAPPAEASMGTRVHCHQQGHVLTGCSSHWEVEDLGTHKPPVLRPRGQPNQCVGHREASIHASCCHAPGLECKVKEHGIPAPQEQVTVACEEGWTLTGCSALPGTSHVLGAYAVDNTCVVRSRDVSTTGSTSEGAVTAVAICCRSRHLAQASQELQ

In the case of `CC(=O)N[C@H](C(=O)N[C@H](C(=O)N[C@@H](Cc1ccccc1)C(=O)N[C@H](C(=O)N[C@@H](CO)C(=O)N[C@@H](Cc1c[nH]c2ccccc12)C(=O)N[C@@H](CCC(=O)O)C(=O)N[C@@H](CCC(=O)O)C(=O)N[C@@H](Cc1ccc(O)cc1)C(=O)N[C@@H](CC(C)C)C(=O)N[C@@H](CC(=O)O)C(=O)N[C@@H](Cc1c[nH]c2ccccc12)C(=O)N[C@H](C(N)=O)C(C)C)[C@@H](C)O)C(C)C)[C@@H](C)O` [pep2-8], the kd was “(1.73±0.25)×10^−1 s^−1”.
